Like-named read-outs stand apart in the source and are kept apart here.
Biological target: T1, Zcchc11 enzyme (Homo sapiens, UniProt Q5TAX3)
T1 construct: made in house; host or cells: HEK293 cells (Zcchc11); E. coli Rosetta II (LIN28A)
T1 sequence (Q5TAX3 212-1420): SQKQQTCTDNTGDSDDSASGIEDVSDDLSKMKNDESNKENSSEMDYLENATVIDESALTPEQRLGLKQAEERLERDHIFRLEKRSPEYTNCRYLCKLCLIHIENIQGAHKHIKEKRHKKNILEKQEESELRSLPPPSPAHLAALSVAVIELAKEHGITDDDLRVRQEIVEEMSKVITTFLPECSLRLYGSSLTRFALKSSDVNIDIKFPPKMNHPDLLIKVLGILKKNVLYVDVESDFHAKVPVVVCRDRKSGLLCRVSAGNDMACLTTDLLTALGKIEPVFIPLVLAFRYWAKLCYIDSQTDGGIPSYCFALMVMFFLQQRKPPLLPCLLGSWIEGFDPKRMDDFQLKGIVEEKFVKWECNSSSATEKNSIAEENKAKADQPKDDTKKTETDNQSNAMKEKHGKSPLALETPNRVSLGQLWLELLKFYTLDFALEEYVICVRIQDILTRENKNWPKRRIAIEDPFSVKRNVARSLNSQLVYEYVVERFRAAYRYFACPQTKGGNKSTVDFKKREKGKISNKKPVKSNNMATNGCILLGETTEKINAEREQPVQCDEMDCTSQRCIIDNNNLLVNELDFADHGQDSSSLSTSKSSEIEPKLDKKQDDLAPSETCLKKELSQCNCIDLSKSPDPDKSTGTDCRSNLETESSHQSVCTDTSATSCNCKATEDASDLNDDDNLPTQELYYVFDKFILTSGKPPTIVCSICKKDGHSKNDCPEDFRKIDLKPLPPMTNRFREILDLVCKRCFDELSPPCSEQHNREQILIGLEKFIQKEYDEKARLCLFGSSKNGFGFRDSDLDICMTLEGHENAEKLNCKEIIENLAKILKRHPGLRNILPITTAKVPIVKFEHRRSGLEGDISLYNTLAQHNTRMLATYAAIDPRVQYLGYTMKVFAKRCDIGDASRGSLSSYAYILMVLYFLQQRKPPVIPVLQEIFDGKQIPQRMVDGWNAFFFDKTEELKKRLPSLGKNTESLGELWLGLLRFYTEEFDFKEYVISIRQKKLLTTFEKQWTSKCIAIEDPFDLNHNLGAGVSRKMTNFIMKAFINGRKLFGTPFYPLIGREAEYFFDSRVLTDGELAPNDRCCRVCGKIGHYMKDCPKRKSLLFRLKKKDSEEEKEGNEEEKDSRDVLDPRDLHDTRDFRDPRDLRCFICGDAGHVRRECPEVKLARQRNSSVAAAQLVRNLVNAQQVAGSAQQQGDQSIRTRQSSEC
Assay: TUTase assay (Zcchc11 assay, Lin28a-dependent polyuridylation of pre-let-7)
Type: biochemical
Conditions: read-out: Potency Lin28a-dep Z11 IC50
Method in brief: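 HEK293-expressed human Zcchc11 (residues 212-1420, 0.2 nM) with 10 nM LIN28A and 2 nM 5′-fluorescein pre-let-7, preincubated 30 min at room temperature, pH 7.3. Started with 5 uM UTP; poly(U) tails quenched by 3′-rhodamine A20 probe, read kinetically. IC50 from early-rate four-parameter fit; no-UTP wells define 0%.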

[1] = Lin28a-dependent Zcchc11 (Z11) TUTase assay
[2] = Lin28a-dependent Zcchc11 (Z11) TUTase activity
[3] = LIN28A 10 nM, Zcchc11 0.2 nM, 5′-fluorescein pre-let-7 miRNA 2 nM, UTP 5 uM, room temperature, 30 minutes pre-incubation

CN(C)C1CN(c2ccc(-n3cc(C(=O)O)c(=O)c4cc(C5CC5)c(N5CCC[C@@H]5COc5ncccc5Cl)cc43)cn2)C1 [Example 559, (R)-7-(2-(((3-chloropyridin-2-yl)oxy)methyl)pyrrolidin-1-yl)-6-cyclopropyl-1-(6-(3-(dimethylamino)azetidin-1-yl)pyridin-3-yl)-4-oxo-1,4-dihydroquinoline-3-carboxylic acid]
IC50 [1]: ≤ 1 µM

O=C(O)c1cn(-c2ccc(O)cc2)c2cc(N3CCC[C@@H]3COc3cc4cc[nH]c4cn3)c(F)cc2c1=O [Compound 118, (R)-7-(2-(((1H-pyrrolo[2,3-c]pyridin-5-yl)oxy)methyl)pyrrolidin-1-yl)-6-fluoro-1-(4-hydroxy-phenyl)-4-oxo-1,4-dihydro-quinoline-3-carboxylic acid]
IC50 [2]: ≤ 1 µM

COc1ccc(Cl)c(OC[C@H]2CCCN2c2cc3c(cc2C(F)(F)F)c(=O)c(C(=O)O)cn3-c2ccc(N3CC(N(C)C)C3)nc2)n1 [Example 659, (R)-7-(2-(((3-chloro-6-methoxypyridin-2-yl)oxy)methyl)pyrrolidin-1-yl)-1-(6-(3-(dimethylamino)azetidin-1-yl)pyridin-3-yl)-4-oxo-6-(trifluoromethyl)-1,4-dihydroquinoline-3-carboxylic acid]
IC50 [1]: ≤ 1 µM

CN(C)C1CN(c2ccc(-n3cc(C(=O)O)c(=O)c4cc(C#N)c(N5C(COc6ncccc6F)CCC5(C)C)cc43)cn2)C1 (centres unmarked) [Compound 264, 6-cyano-1-(6-(3-(dimethyl-amino)azetidin-1-yl)pyridin-3-yl)-7-(5-(((3-fluoropyridin-2-yl)oxy)methyl)-2,2-dimethyl-pyrrolidin-1-yl)-4-oxo-1,4-dihydro-quinoline-3-carboxylic acid]
IC50 [2]: 1 to 10 µM

O=C(O)c1cn(-c2cncnc2)c2cc(N3CCC[C@@H]3COc3ncccc3Cl)c(Cl)cc2c1=O [Example 497]
IC50 [1]: ≤ 1 µM

Nc1cc(F)c(-n2cc(C(=O)O)c(=O)c3cc(Cl)c(N4CCC[C@@H]4COc4ncccc4Cl)cc32)cn1 [Example 586, (R)-1-(6-amino-4-fluoropyridin-3-yl)-6-chloro-7-(2-(((3-chloropyridin-2-yl)oxy)methyl)pyrrolidin-1-yl)-4-oxo-1,4-dihydroquinoline-3-carboxylic acid]
IC50 [1]: ≤ 1 µM

O=C(O)c1cn(-c2ccc(N3CCC3)nc2)c2cc(N3CCC[C@H]3COc3ncccc3Cl)c(Cl)cc2c1=O [Example 516, (S)-1-(6-(azetidin-1-yl)pyridin-3-yl)-6-chloro-7-(2-(((3-chloropyridin-2-yl)oxy)methyl)pyrrolidin-1-yl)-4-oxo-1,4-dihydroquinoline-3-carboxylic acid]
IC50 [1]: ≤ 1 µM

COc1ccc(COc2ccc(-n3cc(C(=O)O)c(=O)c4cc(F)c(N5CCC[C@@H]5COc5ccncn5)cc43)c(F)c2)cc1 [Compound 139, (R)-6-fluoro-1-(2-fluoro-4-((4-methoxy-benzyl)oxy)phenyl)-4-oxo-7-(2-((pyrimidin-4-yloxy)methyl)pyrrolidin-1-yl)-1,4-dihydro-quinoline-3-carboxylic acid]
IC50 [2]: ≤ 1 µM

N#Cc1cc2c(=O)c(C(=O)O)cn(-c3ccc(N4CCC4)nc3)c2cc1N1CCC[C@@H]1COc1ncccc1Cl [Example 488, 1-[6-(azetidin-1-yl)pyridin-3-yl]-7-[(2R)-2-{[(3-chloropyridin-2-yl)oxy)methyl}pyrrolidin-1-yl]-6-cyano-4-oxo-1,4-dihydroquinoline-3-carboxylic acid]
IC50 [1]: ≤ 1 µM

CN(C)C1CN(c2ccc(-n3cc(C(=O)O)c(=O)c4cc(Cl)c(N5CC(C6CC6)C[C@@H]5COc5ncccc5Cl)cc43)cn2)C1 (stereo partly drawn) [Compound 349, 6-chloro-7-((2R)-2-(((3-chloropyridin-2-yl)oxy)methyl)-4-cyclopropyl-pyrrolidin-1-yl)-1-(6-(3-(dimethyl-amino)azetidin-1-yl)pyridin-3-yl)-4-oxo-1,4-dihydro-quinoline-3-carboxylic acid]
IC50 [2]: ≤ 1 µM

CN(C)C1CN(c2ccc(-n3cc(C(=O)O)c(=O)c4cc(Cl)c(N5CCC(C)(C)C5COc5ncccc5Cl)cc43)cn2)C1 (centres unmarked) [Example 59, 6-chloro-7-(2-{[(3-chloropyridin-2-yl)oxy]methyl}-3,3-dimethylpyrrolidin-1-yl)-1-{6-[3-(dimethylamino)azetidin-1-yl]pyridin-3-yl}-4-oxoquinoline-3-carboxylic acid]
IC50 [3]: ≤ 1 µM

CCc1cccnc1OC[C@H]1CCCN1c1cc2c(cc1F)c(=O)c(C(=O)O)cn2-c1ccccc1 [Example 6, (R)-7-(2-(((3-ethylpyridin-2-yl)oxy)methyl)pyrrolidin-1-yl)-6-fluoro-4-oxo-1-phenyl-1,4-dihydroquinoline-3-carboxylic acid]
IC50 [3]: > 50 µM

O=C(O)c1cn(C2CC2)c2cc(N3CCC[C@@H]3COc3ccccn3)c(F)cc2c1=O [Compound 87, (R)-1-cyclopropyl-6-fluoro-4-oxo-7-(2-((pyridin-2-yloxy)methyl)pyrrolidin-1-yl)-1,4-dihydro-quinoline-3-carboxylic acid]
IC50 [2]: 1 to 10 µM

O=C(O)c1cn(-c2ccc(F)cc2F)c2cc(N3CCC[C@@H]3COc3ccccn3)c(F)cc2c1=O [Compound 84, (R)-1-(2,4-difluorophenyl)-6-fluoro-4-oxo-7-(2-((pyridin-2-yloxy)methyl)pyrrolidin-1-yl)-1,4-dihydro-quinoline-3-carboxylic acid]
IC50 [2]: ≤ 1 µM

O=C(O)c1cn(-c2ccc(N3CCOCC3)nc2)c2cc(N3CCC[C@@H]3COc3ncccc3Cl)c(Cl)cc2c1=O [Example 431, (R)-6-chloro-7-(2-(((3-chloropyridin-2-yl)oxy)methyl)pyrrolidin-1-yl)-1-(6-morpholino-pyridin-3-yl)-4-oxo-1,4-dihydroquinoline-3-carboxylic acid]
IC50 [1]: ≤ 1 µM

CN(C)C1CN(c2ccc(-n3cc(C(=O)O)c(=O)c4cc(Cl)c(N5CCC[C@]5(C)COc5ncccc5Cl)cc43)cn2)C1 [Compound 277, (R)-6-chloro-7-(2-(((3-chloropyridin-2-yl)oxy)methyl)-2-methyl-pyrrolidin-1-yl)-1-(6-(3-(dimethyl-amino)azetidin-1-yl)pyridin-3-yl)-4-oxo-1,4-dihydro-quinoline-3-carboxylic acid formic acid]
IC50 [2]: ≤ 1 µM

Cc1cc2c(=O)c(C(=O)O)cn(-c3ccc(N4CC(N(C)C)C4)nc3)c2cc1N1C(=O)CC1COc1ccccn1 (centres unmarked) [Compound 298, 1-(6-(3-(dimethyl-amino)azetidin-1-yl)pyridin-3-yl)-6-methyl-4-oxo-7-(2-oxo-4-((pyridin-2-yloxy)methyl)azetidin-1-yl)-1,4-dihydro-quinoline-3-carboxylic acid]
IC50 [2]: 10 to 50 µM

N#Cc1cc2c(=O)c(C(=O)O)cn(-c3ccc(N)nc3)c2cc1N1CCC[C@@H]1COc1ncccc1Cl [Example 513, (R)-1-(6-aminopyridin-3-yl)-7-(2-(((3-chloropyridin-2-yl)oxy)methyl)pyrrolidin-1-yl)-6-cyano-4-oxo-1,4-dihydroquinoline-3-carboxylic acid]
IC50 [1]: ≤ 1 µM

CN(C)c1ccc(Cl)c(OC[C@H]2C[C@@H]3C[C@@H]3N2c2cc3c(cc2F)c(=O)c(C(=O)O)cn3-c2ccc(N3CC(N(C)C)C3)nc2)n1 [Compound 335, 7-[(1S,3R,5S)-3-({[3-Chloro-6-(dimethyl-amino)pyridin-2-yl]oxy}methyl)-2-azabicyclo [3.1.0]hexan-2-yl]-1-{6-[3-(dimethyl-amino)azetidin-1-yl]pyridin-3-yl}-6-fluoro-4-oxoquinoline-3-carboxylic acid]
IC50 [2]: ≤ 1 µM

COCCNC1CN(c2ccc(-n3cc(C(=O)O)c(=O)c4cc(Cl)c(N5CCC[C@@H]5COc5ncccc5Cl)cc43)cn2)C1 [Example 494, (R)-6-chloro-7-(2-(((3-chloropyridin-2-yl)oxy)methyl)pyrrolidin-1-yl)-1-(6-(3-((2-methoxyethyl)amino)azetidin-1-yl)pyridin-3-yl)-4-oxo-1,4-dihydroquinoline-3-carboxylic acid]
IC50 [1]: ≤ 1 µM

Reference: patent US12662491B2 (Redona Therapeutics, Inc., priority 2020, dated 2026)
